Source: patent US6286513A, “Methods for treating superficial bladder carcinoma” (priority 1998, dated 2001)

Assays:
Tis tumors = assay: Recurrence in patients with Tis tumors (Example 4); type: in vivo
Description: Ten patients from whom one or more foci of Tis had been removed were treated weekly for six weeks with the high efficacy therapy as described above in example 1 and 12 patients from whom one or more foci of Tis had been removed were treated weekly for six with the standard MMC intravesical therapy as described in example 1. […] The projected 5-year recurrence free rate is 43% for the high efficacy treatment and 19% for the standard treatment.

[1] = test system: low grade tumors (grade I and grade II); assay: Recurrence in patients with low grade tumors (Example 5); type: in vivo
Description: Eighty-one patients from whom low grade tumors (i.e., grade I and grade II) had been removed were treated weekly for six weeks with the high efficacy therapy as described above in example 1 and 64 patients from whom low grade tumors were had been removed were treated weekly for six weeks with the customary experimental therapy as described in example 1. All patients were evaluated as described in example 1. The median time to recurrence was 637 days for patients treated by the high efficacy treatment versus 339 days for patients treated by the customary experimental treatment. The projected 5-year recurrence free value is 35% for the high efficacy treatment and 21% for the customary experimental treatment.

T1 tumors = assay: Recurrence in patients with T1 tumors (Kaplan-Meier); type: in vivo
Text: (§1) The Kaplan-Meier Curve is a conventional tool used to project treatment outcome such as the % of patients who remain alive or free of disease at a certain time interval. (Martin Bland, Introduction to Medical Statistics (1994) Oxford Press). The Kaplan Meier Curve was used to compare the customary experimental therapy to the high efficacy therapy. When compared to the customary experimental therapy, the high efficacy therapy increased the percentage of all patients who are projected to remain recurrence-freefor longer than 5 years from 20 to 41%. The improvement was similar for patients with T1 tumors which were growing in the deeper bladder tissue layers (i.e. increase from 16% to 44%) and for patients with Ta tumors which were growing in the urothelial surface of the bladder (i.e. increase from 20% to 37%).

Ta tumors = assay: Recurrence in patients with Ta tumors (Kaplan-Meier); type: in vivo
Text: as §1

[2] = Toxicity comparison of high efficacy and customary intravesical MMC therapy (Table 1); type: in vivo, patients
[3] = test system: large tumors, i.e. tumors >5 cm; assay: Recurrence in patients with large tumors; type: in vivo; details: high efficacy therapy; large tumors >5 cm
aneuploid tumors = assay: Recurrence in patients with aneuploid tumors; type: in vivo; details: high efficacy therapy
[4] = customary experimental treatment

COC12C(COC(N)=O)C3=C(C(=O)C(C)=C(N)C3=O)N1CC1NC12 (centres unmarked) [MMC]
(median time to recurrence; words missing in text) (Tis tumors; [4]): 106 days | projected 5-year recurrence free rate (Tis tumors; high efficacy treatment): 43% | projected 5-year recurrence free rate (Tis tumors; standard treatment): 19% | median time to recurrence [1, 4]: 339 days | projected 5-year recurrence free value [1, 4]: 21% | median time to recurrence ([1]; high efficacy treatment): 637 days | projected 5-year recurrence free value ([1]; high efficacy treatment): 35% | percentage of patients projected to remain recurrence-free for longer than 5 years (T1 tumors; customary experimental therapy): 16% | percentage of patients projected to remain recurrence-free for longer than 5 years (T1 tumors; high efficacy therapy): 44% | percentage of patients projected to remain recurrence-free for longer than 5 years (Ta tumors; customary experimental therapy): 20% | percentage of patients projected to remain recurrence-free for longer than 5 years (Ta tumors; high efficacy therapy): 37% | Allergy ([2]; Customary (n = 96)): 9 % of patients | Any toxicity ([2]; Customary (n = 96)): 64 % of patients | Cramp ([2]; Customary (n = 96)): 17 % of patients | Cystitis ([2]; Customary (n = 96)): 18 % of patients | Dermal ([2]; Customary (n = 96)): 10 % of patients | Dysuria ([2]; Customary (n = 96)): 19 % of patients | Fatigue ([2]; Customary (n = 96)): 20 % of patients | Fever ([2]; Customary (n = 96)): 5 % of patients | Hematuria ([2]; Customary (n = 96)): 24 % of patients | Leukopenia ([2]; Customary (n = 96)): 0 % of patients | Malaise ([2]; Customary (n = 96)): 19 % of patients | Nausea ([2]; Customary (n = 96)): 9 % of patients | Pain ([2]; Customary (n = 96)): 17 % of patients | Thrombocytopenia ([2]; Customary (n = 96)): 0 % of patients | Urgency ([2]; Customary (n = 96)): 28 % of patients | Urinary frequency ([2]; Customary (n = 96)): 33 % of patients | Vomiting ([2]; Customary (n = 96)): 5 % of patients | Allergy ([2]; High efficacy (n = 104)): 13 % of patients | Any toxicity ([2]; High efficacy (n = 104)): 72 % of patients | Cramp ([2]; High efficacy (n = 104)): 15 % of patients | Cystitis ([2]; High efficacy (n = 104)): 24 % of patients | Dermal ([2]; High efficacy (n = 104)): 15 % of patients | Dysuria ([2]; High efficacy (n = 104)): 35 % of patients | Fatigue ([2]; High efficacy (n = 104)): 19 % of patients | Fever ([2]; High efficacy (n = 104)): 5 % of patients | Hematuria ([2]; High efficacy (n = 104)): 26 % of patients | Leukopenia ([2]; High efficacy (n = 104)): 1 % of patients | Malaise ([2]; High efficacy (n = 104)): 18 % of patients | Nausea ([2]; High efficacy (n = 104)): 12 % of patients | Pain ([2]; High efficacy (n = 104)): 17 % of patients | Thrombocytopenia ([2]; High efficacy (n = 104)): 0 % of patients | Urgency ([2]; High efficacy (n = 104)): 22 % of patients | Urinary frequency ([2]; High efficacy (n = 104)): 26 % of patients | Vomiting ([2]; High efficacy (n = 104)): 4 % of patients | bone marrow toxicity ([2]; high efficacy therapy): did not exhibit any signs of bone marrow toxicity | dysuria, frequency and severity ([2]; high efficacy therapy): higher frequency of dysuria. But this toxicity was mild and did not result in termination of treatment | other toxicities (dysuria, cystitis, hematuria, cramps), severity ([2]; high efficacy therapy, a small number of patients): mild | delaying and preventing tumor recurrence, vs customary therapy [3]: more effective | delaying and preventing tumor recurrence, vs customary therapy (aneuploid tumors): more effective
